The record followed here is patent US20110070215A1 (priority 2009, published 2011).

Structures are written as SMILES.

The assay deals with DU-145 cells. It is filed as cell-based, human.

As to `C=C1[C@@H](C)[C@H]2[C@H](Cc3ccccc3)NC(=O)[C@]23[C@H](OC(C)=O)/C=C/[C@@](C)(O)C(=O)[C@@H](C)C/C=C/[C@H]3[C@@H]1O` [Cytochalasin-D], the “Relative Wound Density at 24 Hours, Mean” value is on record as 3.3 ± 0.2; the “Relative Wound Density at 24 Hours, Percent Relative to Media” value turned out to be 4%; the “effect on cell migration” value is on record as “did not migrate”.
